Experimental data published in patent US20210030802A1, “GLUCOCORTICOID-RESISTANT LEUKOCYTES AND THEIR USE IN THE TREATMENT OF CANCERS AND VIRUSES” (CONSTANT BIOTECHNOLOGY, LLC, priority 2018, published 2021).

Tests used:
RS4;11 cells = assay: Survival of lenti-transduced cells in presence of steroids with or without HSD inhibitor (CELLTITER-GLO); type: cell-based, human; conditions: HSD11B2-transduced RS4;11 cells; for Effect of HSD inhibitor on steroid protection of transduced cells: DEX or PRED, carbenoxolone 1 μM and 10 μM; for Reversal of protection against dexamethasone by HSD inhibitor / Reversal of protection against prednisolone by HSD inhibitor: posaconazole 1 μM, carbenoxolone 10 μM or 1 μM
HSD11B2 = molecular target: T1, HSD11B2 (Homo sapiens, UniProt P80365); assay: Effect of HSD inhibitor on steroid degradation by HSD11B2-transduced stimulated leukocytes; type: cell-based; conditions: posaconazole 7 μM
T1 construct: expressed in transfected cells
T1 sequence (P80365 1-405): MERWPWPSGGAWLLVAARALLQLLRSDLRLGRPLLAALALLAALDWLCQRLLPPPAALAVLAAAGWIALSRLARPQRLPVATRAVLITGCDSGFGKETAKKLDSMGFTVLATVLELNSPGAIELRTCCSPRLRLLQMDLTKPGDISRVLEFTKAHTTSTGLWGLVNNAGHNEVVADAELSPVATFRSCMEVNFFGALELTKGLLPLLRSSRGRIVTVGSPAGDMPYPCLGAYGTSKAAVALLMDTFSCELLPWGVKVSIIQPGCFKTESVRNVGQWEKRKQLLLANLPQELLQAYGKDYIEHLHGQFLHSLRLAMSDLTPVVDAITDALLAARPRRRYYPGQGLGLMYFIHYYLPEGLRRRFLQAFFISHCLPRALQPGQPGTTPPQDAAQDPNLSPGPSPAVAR

HSD11B1 = molecular target: T2, HSD11B1 (Homo sapiens, UniProt P28845); assay: Effect of HSD inhibitor on steroid degradation by HSD11B1-transduced stimulated leukocytes; type: cell-based; conditions: posaconazole 7 μM
T2 construct: expressed in transfected cells
T2 sequence (P28845 whole entry): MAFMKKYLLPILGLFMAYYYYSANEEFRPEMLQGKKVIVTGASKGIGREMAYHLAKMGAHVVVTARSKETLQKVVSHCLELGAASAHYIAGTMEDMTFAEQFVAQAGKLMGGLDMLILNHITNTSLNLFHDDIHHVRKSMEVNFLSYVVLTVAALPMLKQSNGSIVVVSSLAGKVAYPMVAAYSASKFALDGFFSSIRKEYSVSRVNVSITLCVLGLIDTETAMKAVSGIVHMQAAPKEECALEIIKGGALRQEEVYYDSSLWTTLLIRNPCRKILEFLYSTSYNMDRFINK

stimulated leukocytes [1] = assay: Steroid degradation by lentivirally transduced stimulated leukocytes, steroid detected by ELISA; type: cell-based, human
stimulated leukocytes [2] = assay: Conversion of cortisol to cortisone by transduced stimulated leukocytes, UHPLC-Mass Spectrometry; type: cell-based, human
Description: Human peripheral blood leukocytes (HPBL) were prepared by density gradient centrifugation of anti-coagulated human blood (Cincinnati Children's Hospital Cell Processing Core). HPBL were stimulated with CYTOSTIM™, inteleukin 2 (IL-2) in TEXMACS™ media (all reagents, Miltenyi Biotech) according to manufacturer's instructions for three days. […] After stimulation, the entire population of stimulated cells (“stimulated leukocytes”) were cryopreserved in cell freezing media which contained dimethyl sulfoxide (DMSO). Prior to experiments, cryopreserved stimulated leukocytes were thawed, washed twice and cultured in TEXMACS™ media supplemented with 10% (v/v) heat inactivated fetal bovine serum (HI-FBS, VWR). After an overnight incubation, typical cell viability post-thaw was greater than 95% as determined by Trypan blue dye exclusion. Post-thaw, cells were cultured overnight prior to transduction with lentivirus. […]
Viral copy number (VCN) was assessed on cell pellets by real-time polymerase chain reaction (RT-PCR) by extracting the genomic DNA and using primers and probes for the R-U5 region of the lentiviral vector. VCN was determined using a cGMP testing protocol conducted by the Translational Trials Support & Development Laboratory of Cincinnati Children's Hospital. […] To permit direct comparison of the intrinsic activity of each enzyme construct—independent of any variability of target cell transduction or number of transduced cells in an experimental arm—VCN values were combined with the number of live cells measured at the end of incubation to adjust data to reflect a uniform level of cells carrying the transgene.
Cortisol and cortisone levels in supernatants were quantified by the Michigan Regional Comprehensive Metabolomics Resource Core at the University of Michigan, Ann Arbor, Mich., in a delta 4 (D4-) steroid hormone assay using combined ultra-high pressure liquid chromatography and triple quadrapole (UHPLC-QQQ) mass spectrometry. […]

Row | Molecule | Effect of HSD inhibitor on steroid protection of transduced cells (RS4;11 cells) | Effect of HSD inhibitor on steroid protection of transduced cells (RS4;11 cells; listed as Carbenoxolone) | Reversal of protection against dexamethasone by HSD inhibitor (RS4;11 cells) | Reversal of protection against prednisolone by HSD inhibitor (RS4;11 cells) | Inhibition of steroid degradation by HSD11B2 genes (HSD11B2, B2-Tag and wtExon1-none) (HSD11B2) | Inhibition of HSD11B1 degradation of steroids (HSD11B1) | Inhibition of HSD11B1 depletion (conversion) of prednisolone and dexamethasone (HSD11B1) | Cortisol levels at end of assay (stimulated leukocytes [1]; cortisol 100 nM, ELISA) | Degradation of cortisol, prednisolone and dexamethasone (stimulated leukocytes [1]; steroid 100 nM, 18 to 24 hours, adjusted for number of transgene bearing cells) | Rate of conversion of prednisolone or dexamethasone (stimulated leukocytes [1]; transduced leukocytes) | Generation of cortisone from cortisol (stimulated leukocytes [2]; UHPLC-Mass Spectrometry) | Rate of cortisol depletion indirectly calculated from cortisone production (stimulated leukocytes [2]; assuming no inter-conversion) | Rate of conversion of cortisol to cortisone (stimulated leukocytes [2]; transduced leukocytes)
1 | CC1(C)[C@@H](OC(=O)CCC(=O)O)CC[C@]2(C)[C@H]3C(=O)C=C4[C@@H]5C[C@@](C)(C(=O)O)CC[C@]5(C)CC[C@@]4(C)[C@]3(C)CC[C@@H]12 [carbenoxolone] | reduced or eliminated | showed a dose response effect | Protection was reversed | Protection was reversed | – | – | – | – | – | – | – | – | –
2 | CC[C@@H]([C@H](C)O)n1ncn(-c2ccc(N3CCN(c4ccc(OC[C@@H]5CO[C@@](Cn6cncn6)(c6ccc(F)cc6F)C5)cc4)CC3)cc2)c1=O [posaconazole] | reduced or eliminated | – | Protection was reversed | Protection was reversed | inhibited | also inhibited | strongly inhibited | – | – | – | – | – | –
3 | wtExon1-none: modified HSD11B2 gene wherein approximately exon 1 was not codon modified but remained wild type (SEQ ID No.: 31) (nucleic acid, wtExon1-none) DNA: CCCCTCACTCGGCGCGATCTAGATCTCGAATCGCCAGCCCGCTGGGCCGCCATGGAGCGCTGGCCTTGGCCGTCGGGCGGCGCCTGGCTGCTCGTGGCTGCCCGCGCGCTGCTGCAGCTGCTGCGCTCAGACCTGCGTCTGGGCCGCCCGCTGCTGGCGGCGCTGGCGCTGCTGGCCGCGCTCGACTGGCTGTGCCAGCGCCTGCTGCCCCCGCCGGCCGCACTCGCCGTGCTGGCCGCCGCCGGCTGGATCGCGTTGTCCCGCCTGGCGCGCCCGCAGCGCCTGCCGGTGGCCACTCGCGCGGTGCTCATCACCGGTTGTGACTCTGGTTTTGGTAAGGAGACGGCTAAGAAACTGGACTCCATGGGTTTCACGGTGCTGGCTACCGTATTGGAGTTGAACAGCCCTGGTGCTATCGAGCTGCGTACCTGCTGCTCCCCTCGTCTAAGGCTGCTGCAGATGGACCTGACCAAACCAGGAGACATTAGCCGTGTGCTAGAGTTCACCAAGGCTCACACCACCAGCACCGGTCTGTGGGGTCTCGTCAACAACGCAGGTCACAATGAAGTAGTTGCTGATGCAGAGCTGTCTCCAGTGGCTACTTTCCGTAGCTGCATGGAGGTGAATTTCTTTGGTGCACTCGAGCTGACCAAGGGTCTCCTGCCTCTGCTGCGTAGCTCAAGGGGTCGTATCGTGACTGTGGGAAGCCCAGCAGGAGACATGCCATATCCATGCTTGGGAGCTTATGGAACCTCCAAAGCAGCTGTGGCACTACTCATGGACACATTCAGCTGTGAACTCCTTCCTTGGGGAGTCAAGGTCAGCATCATCCAGCCTGGTTGCTTCAAGACAGAGTCAGTGAGAAACGTGGGTCAGTGGGAAAAGCGTAAGCAATTGCTGCTGGCTAACCTGCCTCAAGAGCTGCTGCAGGCTTACGGTAAGGACTACATCGAGCACTTGCATGGACAGTTCCTGCACTCGCTACGTCTGGCTATGTCCGACCTCACCCCAGTTGTAGATGCTATCACAGATGCACTGCTGGCAGCTAGGCCTCGTCGTCGTTATTACCCTGGTCAGGGTCTGGGACTCATGTACTTCATCCACTACTACCTGCCTGAAGGTCTGAGGCGTCGTTTCCTGCAGGCTTTCTTCATCAGTCACTGTCTGCCTCGAGCACTGCAGCCTGGTCAGCCTGGTACTACCCCACCACAGGACGCAGCTCAGGACCCAAACCTGAGCCCTGGTCCTTCCCCAGCAGTGGCTAGGTGACCTGAAAAAGGGGTACCTTTAAGACCAATGACTTACAAGGCAGCTGTAG | – | – | – | – | – | – | – | below the limit of quantitation | degraded the steroids | at least 2000 pg/hour/10^5 of genetically modified leukocytes | generated cortisone | about 1,014 pg/hr/10e5 copies of the transgene | 800-1200 pg/hour/10^5 of genetically modified leukocytes
